Measurements: patent publication US10526316B2, “Quinoxaline and pyridopyrazine derivatives as PI3Kβ inhibitors” (Janssen Pharmaceutica NV, priority 2015, dated 2020)
Where two headings read alike, the source gives them in different places.

Experiments:
kinase enzymes [1] = target: T1, kinase enzymes (Homo sapiens, UniProt P48736); experiment: Enzyme binding assay (KINOMEscan, DiscoveRx), further kinases of Table A; details: PIK3Cγ_h
T1 construct: purchased DiscoveRx Corporation, San Diego (contract service, KINOMEscan)
T1 sequence (P48736 whole entry): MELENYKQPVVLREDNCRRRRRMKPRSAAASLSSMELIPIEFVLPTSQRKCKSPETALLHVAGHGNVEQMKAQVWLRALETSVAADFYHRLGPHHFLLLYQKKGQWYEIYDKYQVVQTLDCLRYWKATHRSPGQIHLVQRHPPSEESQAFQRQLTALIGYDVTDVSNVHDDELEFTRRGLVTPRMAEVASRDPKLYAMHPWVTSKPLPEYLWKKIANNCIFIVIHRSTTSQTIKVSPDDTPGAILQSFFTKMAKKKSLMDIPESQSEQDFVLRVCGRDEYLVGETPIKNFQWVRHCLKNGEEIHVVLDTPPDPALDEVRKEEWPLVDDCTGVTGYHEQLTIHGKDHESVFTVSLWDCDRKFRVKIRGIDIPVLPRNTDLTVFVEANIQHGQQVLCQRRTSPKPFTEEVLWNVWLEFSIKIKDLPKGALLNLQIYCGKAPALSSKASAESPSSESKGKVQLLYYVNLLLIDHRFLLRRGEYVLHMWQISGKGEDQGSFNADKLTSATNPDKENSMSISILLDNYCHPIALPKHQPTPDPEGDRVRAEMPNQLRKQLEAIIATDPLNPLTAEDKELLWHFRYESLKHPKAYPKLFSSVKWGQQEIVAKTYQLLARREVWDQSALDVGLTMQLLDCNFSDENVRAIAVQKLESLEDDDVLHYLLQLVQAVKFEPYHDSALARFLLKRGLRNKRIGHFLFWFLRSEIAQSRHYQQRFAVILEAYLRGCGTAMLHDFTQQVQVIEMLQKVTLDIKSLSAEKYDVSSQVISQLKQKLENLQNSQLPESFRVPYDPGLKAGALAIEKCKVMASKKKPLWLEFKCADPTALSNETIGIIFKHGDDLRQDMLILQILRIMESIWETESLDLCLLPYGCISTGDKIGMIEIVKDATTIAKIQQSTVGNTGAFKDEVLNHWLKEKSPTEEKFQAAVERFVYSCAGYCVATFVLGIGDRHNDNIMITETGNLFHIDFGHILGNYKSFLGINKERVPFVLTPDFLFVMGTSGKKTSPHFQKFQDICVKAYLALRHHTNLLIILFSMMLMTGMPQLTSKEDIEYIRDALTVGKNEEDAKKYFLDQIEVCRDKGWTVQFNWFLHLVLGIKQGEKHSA
Outline: (§1)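 Affinity for each kinase was determined by KINOMEscan profiling.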

kinase enzymes [2] = target: T2, kinase enzymes (Homo sapiens, UniProt P42345); experiment: as above; details: MTOR_h
T2 construct: purchased DiscoveRx Corporation, San Diego (contract service, KINOMEscan)
Outline: as §1

kinase enzymes [3] = target: T3, kinase enzymes (Homo sapiens, UniProt P42336); experiment: as above; details: PIK3Cα_h
T3 construct: purchased DiscoveRx Corporation, San Diego (contract service, KINOMEscan)
T3 sequence (P42336 whole entry): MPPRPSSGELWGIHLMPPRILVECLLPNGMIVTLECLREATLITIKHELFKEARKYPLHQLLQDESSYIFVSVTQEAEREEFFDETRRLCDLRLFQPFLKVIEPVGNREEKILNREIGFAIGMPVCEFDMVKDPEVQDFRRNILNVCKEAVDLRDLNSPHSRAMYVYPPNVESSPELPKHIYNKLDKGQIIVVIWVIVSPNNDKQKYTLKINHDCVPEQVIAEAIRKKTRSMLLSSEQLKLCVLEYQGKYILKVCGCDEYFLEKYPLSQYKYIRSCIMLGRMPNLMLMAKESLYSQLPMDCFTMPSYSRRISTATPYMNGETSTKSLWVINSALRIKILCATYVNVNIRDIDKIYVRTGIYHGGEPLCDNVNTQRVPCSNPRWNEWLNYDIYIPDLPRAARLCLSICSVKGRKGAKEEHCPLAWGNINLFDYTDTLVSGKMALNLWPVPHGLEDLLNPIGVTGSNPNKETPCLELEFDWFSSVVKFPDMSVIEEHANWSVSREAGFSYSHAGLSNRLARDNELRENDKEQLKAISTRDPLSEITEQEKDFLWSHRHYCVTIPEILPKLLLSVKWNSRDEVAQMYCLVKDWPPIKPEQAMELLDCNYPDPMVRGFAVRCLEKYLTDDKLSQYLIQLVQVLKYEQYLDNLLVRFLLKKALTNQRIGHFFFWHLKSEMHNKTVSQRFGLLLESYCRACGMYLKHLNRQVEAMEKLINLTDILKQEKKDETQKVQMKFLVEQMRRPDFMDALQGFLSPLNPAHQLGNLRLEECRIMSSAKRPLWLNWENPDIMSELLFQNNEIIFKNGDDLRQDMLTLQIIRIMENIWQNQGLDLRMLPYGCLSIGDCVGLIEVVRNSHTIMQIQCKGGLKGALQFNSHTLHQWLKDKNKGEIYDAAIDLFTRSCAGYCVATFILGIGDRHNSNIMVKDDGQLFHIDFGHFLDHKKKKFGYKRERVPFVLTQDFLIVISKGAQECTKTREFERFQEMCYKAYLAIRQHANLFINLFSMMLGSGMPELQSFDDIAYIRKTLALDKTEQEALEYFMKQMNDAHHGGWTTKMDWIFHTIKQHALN
Outline: as §1

[4] = tested on: Akt phosphorylated at Ser473 in PC-3 cells; experiment: Cellular assay: phosphorylation of Akt at Ser473 in PC-3 cells (MSD ELISA); format: cell-based; details: PC-3 cells, 60 min compound incubation, MSD ELISA, read-out: IC50 pAkt_S473
Outline: (§2)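 After lysis of treated cells (60 min, 37° C, 0.3% DMSO), phospho-Akt levels were measured by MSD electrochemiluminescence ELISA. Potency was derived from concentration-response curves fitted over five concentrations.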

[5] = tested on: Akt phosphorylated at Thr308 in PC-3 cells; experiment: Cellular assay: phosphorylation of Akt at Thr308 in PC-3 cells (MSD ELISA); format: cell-based; details: PC-3 cells, 60 min compound incubation, MSD ELISA, read-out: IC50 pAkt_Thr308
Outline: as §2

PI3Kβ = target: T4, PI3Kβ (Homo sapiens, UniProt P42338); experiment: Enzyme binding assay (KINOMEscan, DiscoveRx); details: PIK3Cβ_h, read-out: Kd PIK3Cβ_h
T4 construct: purchased DiscoveRx Corporation, San Diego (contract service, KINOMEscan)
T4 sequence (P42338 whole entry): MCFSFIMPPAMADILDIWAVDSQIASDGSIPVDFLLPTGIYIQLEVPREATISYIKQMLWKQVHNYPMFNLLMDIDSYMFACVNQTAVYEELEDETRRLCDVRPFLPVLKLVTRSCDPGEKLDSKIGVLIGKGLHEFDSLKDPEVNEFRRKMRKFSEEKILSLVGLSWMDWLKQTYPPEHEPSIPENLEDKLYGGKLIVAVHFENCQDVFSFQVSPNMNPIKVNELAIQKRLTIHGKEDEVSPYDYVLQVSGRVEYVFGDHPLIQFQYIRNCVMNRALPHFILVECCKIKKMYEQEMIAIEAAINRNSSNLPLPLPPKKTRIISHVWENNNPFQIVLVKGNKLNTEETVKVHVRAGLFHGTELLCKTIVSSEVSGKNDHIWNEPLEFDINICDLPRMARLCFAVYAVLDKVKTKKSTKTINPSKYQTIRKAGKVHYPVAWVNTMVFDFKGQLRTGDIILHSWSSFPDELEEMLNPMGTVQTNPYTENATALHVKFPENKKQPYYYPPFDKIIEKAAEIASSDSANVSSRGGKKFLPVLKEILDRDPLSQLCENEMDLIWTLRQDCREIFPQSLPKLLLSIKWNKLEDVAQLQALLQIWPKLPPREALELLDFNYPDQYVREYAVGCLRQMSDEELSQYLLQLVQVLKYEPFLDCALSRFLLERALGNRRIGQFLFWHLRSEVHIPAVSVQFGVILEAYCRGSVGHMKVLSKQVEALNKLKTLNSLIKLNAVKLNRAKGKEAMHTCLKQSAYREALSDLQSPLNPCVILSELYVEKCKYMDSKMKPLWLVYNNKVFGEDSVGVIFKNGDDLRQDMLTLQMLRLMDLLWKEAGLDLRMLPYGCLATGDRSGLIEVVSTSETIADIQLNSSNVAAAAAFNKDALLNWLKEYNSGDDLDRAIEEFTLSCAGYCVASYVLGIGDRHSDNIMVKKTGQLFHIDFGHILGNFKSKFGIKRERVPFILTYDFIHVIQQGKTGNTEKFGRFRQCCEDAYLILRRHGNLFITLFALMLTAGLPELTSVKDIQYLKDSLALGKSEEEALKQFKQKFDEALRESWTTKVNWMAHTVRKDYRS
Outline: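 Values are Kd in nM, the binding constant of each inhibitor for the kinase, obtained from a KINOMEscan enzyme binding assay.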

PI3Kδ = target: T5, PI3Kδ (Homo sapiens, UniProt O00329); experiment: Enzyme binding assay (KINOMEscan, DiscoveRx); details: PIK3Cδ_h
T5 construct: purchased DiscoveRx Corporation, San Diego (contract service, KINOMEscan)
T5 sequence (O00329 1-1044): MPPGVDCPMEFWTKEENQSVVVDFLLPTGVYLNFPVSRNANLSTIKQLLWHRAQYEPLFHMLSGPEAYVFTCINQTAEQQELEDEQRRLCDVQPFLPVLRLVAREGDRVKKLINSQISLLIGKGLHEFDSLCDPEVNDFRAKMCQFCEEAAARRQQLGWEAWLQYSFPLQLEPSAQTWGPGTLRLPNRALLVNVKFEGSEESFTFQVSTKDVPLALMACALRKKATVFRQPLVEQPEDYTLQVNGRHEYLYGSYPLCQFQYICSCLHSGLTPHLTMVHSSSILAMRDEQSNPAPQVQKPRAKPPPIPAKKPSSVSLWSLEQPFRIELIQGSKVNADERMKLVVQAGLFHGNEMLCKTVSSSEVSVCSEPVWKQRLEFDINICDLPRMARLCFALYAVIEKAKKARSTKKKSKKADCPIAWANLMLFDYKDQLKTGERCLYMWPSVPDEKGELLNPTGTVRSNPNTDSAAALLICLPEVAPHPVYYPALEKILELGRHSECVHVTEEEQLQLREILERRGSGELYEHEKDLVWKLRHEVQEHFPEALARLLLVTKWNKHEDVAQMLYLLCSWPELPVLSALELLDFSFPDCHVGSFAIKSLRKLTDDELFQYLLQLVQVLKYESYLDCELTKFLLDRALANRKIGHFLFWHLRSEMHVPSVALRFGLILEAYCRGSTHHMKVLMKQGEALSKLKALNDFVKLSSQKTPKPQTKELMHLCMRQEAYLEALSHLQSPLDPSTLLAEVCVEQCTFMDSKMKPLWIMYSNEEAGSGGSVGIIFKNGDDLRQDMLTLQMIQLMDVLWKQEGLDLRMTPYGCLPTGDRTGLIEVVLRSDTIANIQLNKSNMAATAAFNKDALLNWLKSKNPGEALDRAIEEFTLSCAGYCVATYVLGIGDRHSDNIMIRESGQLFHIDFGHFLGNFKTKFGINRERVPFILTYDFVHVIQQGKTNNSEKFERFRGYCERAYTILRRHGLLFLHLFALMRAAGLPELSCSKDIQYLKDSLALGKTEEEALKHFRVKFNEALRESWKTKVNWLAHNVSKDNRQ
Outline: as §1

SMILES | Kd (kinase enzymes [1]) [nM] | Kd (kinase enzymes [2]) [nM] | Kd (kinase enzymes [3]) [nM] | melting point [°C] | IC50 ([4]; Homo sapiens, PC-3, 1 h) [nM] | IC50 ([5]; Homo sapiens, PC-3, 1 h) [nM] | Kd (PI3Kβ) [nM] | Kd (PI3Kδ) [nM] | IC50 [4] [nM] | IC50 [5] [nM]
CC(Nc1cccc(Br)c1)c1cc(C(=O)N2CCOCC2)cc2ncc(N3CCOCC3)nc12 (stereo not shown) [Compound 124] | 7760 | 8130 | 1070 | 80 | 151 | 93 | 4 | 575 | – | –
Cc1cc(C)cc(NC(C)c2cc(C(=O)N3CCOCC3)cc3ncc(N4CCOCC4)nc23)c1 (stereo not shown) [Compound 126] | > 30200 | > 30200 | 6920 | 80 | 427 | 275 | 13 | 1290 | – | –
CC(Nc1cc(F)cc(F)c1)c1cc(C(=O)N2CCN(CC(F)(F)F)CC2)cc2ncc(N3CCOCC3)nc12 (stereo not shown) [Compound 171] | > 30200 | > 30200 | 2190 | 125 | 155 | 102 | 3 | 575 | – | –
Cc1c(F)cccc1CNc1cc(C(=O)NCCN(C)C)cc2ncc(N3CCOCC3)nc12 [Compound 383] | 7940 | 7080 | 1230 | 172 | 23 | 6 | 1 | 234 | – | –
COC(=O)c1cc(C2CCCN2c2cc(F)cc(F)c2)c2nc(N3CCOCC3)cnc2c1 (single isomer, unassigned) [Compound 249] | 2400 | > 30200 | 794 | 211 | – | – | 4 | 955 | 71 | 52
CC(Nc1cc(F)cc(F)c1)c1cc(C(=O)N(C)CCN(C)C)cc2ncc(N3CCOCC3)nc12 (stereo not shown) [Compound 180] | 2190 | > 30200 | 891 | 148 | 3 | 1 | 0.1 | 49 | – | –
CC(Nc1cc(F)c(F)c(F)c1)c1cc(C(=O)O)cc2ncc(N3CCOCC3)nc12 (stereo not shown) [Compound 170] | 2240 | 4370 | 617 | 285 | > 513 | > 513 | 5 | 288 | – | –
COCCNC(=O)c1cc(C(C)Nc2cc(F)cc(F)c2)c2nc(N3CCOCC3)cnc2c1 (single isomer, unassigned) [Compound 204] | 14500 | > 30200 | > 30200 | 80 | – | – | 1070 | > 30200 | > 513 | > 513
Cc1c(F)cccc1CNc1cc(C(=O)NCCO)cc2ncc(N3CCOCC3)nc12 [Compound 336] | 9120 | 11000 | 1950 | 194 | 85 | 46 | 4 | 871 | – | –
CC(Nc1ccc(F)c(F)c1)c1cc(C(=O)N2CCN3CCC[C@H]3C2)cc2ncc(N3CCOCC3)nc12 (single isomer, unassigned) [Compound 287b] | > 30200 | > 30200 | 9330 | 95 | > 513 | 417 | 27 | 2950 | – | –
CC(Nc1ccc(F)c(F)c1)c1cc(CO)cc2ncc(N3CCOCC3)nc12 (stereo not shown) [Compound 303] | 3890 | 18600 | 3550 | 138 | 87 | 79 | 9 | 457 | – | –
CC(Nc1cc(F)c(F)c(F)c1)c1cc(C(=O)NC[C@@H](C)O)cc2ncc(N3CCOCC3)nc12 (single isomer, unassigned) [Compound 284a] | 8140 | 19100 | 2080 | 113 | – | – | 10 | 939 | 90 | 61
CC(Nc1cc(F)cc(F)c1)c1cc(C(=O)N2CCN(C)CC2)cc2ncc(N3CCOCC3)nc12 (stereo not shown) [Compound 144] | 5620 | > 30200 | 1740 | 80 | 59 | 28 | 2 | 437 | – | –
CC(C)NCCNC(=O)c1cc(C(C)Nc2ccc(F)c(F)c2)c2nc(N3CCOCC3)cnc2c1 (stereo not shown) [Compound 364] | 13800 | > 30200 | 7410 | 80 | 49 | 43 | 5 | 813 | – | –
CC(Nc1ccc(F)c(F)c1)c1cc(C(=O)NCCO)cc2ncc(N3CCOCC3)nc12 (single isomer, unassigned) [Compound 279a] | 5620 | 21400 | 2190 | 80 | 58 | – | 7 | 513 | – | 41
CC(Oc1ccc(F)c(F)c1)c1cc(C(=O)N2CC[C@H](N(C)C)C2)cc2ncc(N3CCOCC3)nc12 (single isomer, unassigned) [Compound 363a] | 26900 | > 30200 | 11000 | 80 | ~126 | 74 | 10 | 417 | – | –
OCCCNCc1cc(C2CCCN2c2cc(F)cc(F)c2)c2nc(N3CCOCC3)cnc2c1 (single isomer, unassigned) [Compound 102] | 398 | > 30200 | 245 | 80 | 22 | 23 | 0.2 | 31 | – | –
